# From patent US8592396B2, “Glucokinase activators and methods of using same” (Bristol-Myers Squibb Company, priority 2010, dated 2013)
# Legend:
# Human Glucokinase = biological target: T1, Human Glucokinase (Homo sapiens, UniProt P35557); assay: Glucokinase tandem enzymatic assay; assay type: biochemical; conditions: 12 mM glucose; for Emax: expressed as a % of basal activation, read-out: Maximal activation (%) Human Glucokinase @ 12 mM Glucose
# T1 construct: Full-length human hepatic GK (untagged) was expressed; made in house; host or cells: E. coli BL21 STAR (DE3)pLysS
# T1 sequence (P35557 1-466 isoform P35557-2): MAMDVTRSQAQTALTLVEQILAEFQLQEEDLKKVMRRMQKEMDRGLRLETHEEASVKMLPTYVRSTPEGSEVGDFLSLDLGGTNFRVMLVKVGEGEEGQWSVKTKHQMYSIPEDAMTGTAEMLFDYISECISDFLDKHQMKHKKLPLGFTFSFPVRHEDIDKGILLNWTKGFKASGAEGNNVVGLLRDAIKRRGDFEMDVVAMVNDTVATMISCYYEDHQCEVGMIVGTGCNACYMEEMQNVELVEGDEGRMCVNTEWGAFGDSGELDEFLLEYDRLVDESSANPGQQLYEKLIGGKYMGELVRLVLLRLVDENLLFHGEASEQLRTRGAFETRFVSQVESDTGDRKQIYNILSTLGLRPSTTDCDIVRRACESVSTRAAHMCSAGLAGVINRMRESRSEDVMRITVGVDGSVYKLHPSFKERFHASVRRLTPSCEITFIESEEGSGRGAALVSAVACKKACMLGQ
# Procedure: Glucokinase Tandem Enzymatic Assay
# Enzymatic activity of human glucokinase (GK) was measured by incubating GK, ATP, and glucose for discrete time periods followed by quenching with EDTA (ethylenediamine tetra-acetic acid). Relative amounts of product glucose-6-phosphate (G6P) were measured by then running a detection assay using G6P dehydrogenase and measuring the conversion of ThioNAD (thio-nicotinamide adenine dinucleotide) to ThioNADH (thio-dihydronicotinamide adenine dinucleotide) at a wavelength of 405 nm. This “uncoupled” enzymatic reaction is denoted as the GK “tandem” assay. Activation of GK by compounds can be assessed using this assay. The GK tandem assay protocol described below was followed using a range of activator compound concentrations from 0 to 100 μM at 5 and 12 mM of glucose. Human full-length glucokinase (GK, 15 nM) was incubated with 5 or 12 mM glucose in a 384 well black microtiter plate with a clear bottom. To initiate the GK reaction, magnesium-ATP (3 mM final concentration) was added to GK in buffer (final buffer conditions of 25 mM HEPES buffer, pH 7.1, containing 1 mM dithiothreitol and 5% DMSO). The total reaction volume was 20 μL. The reaction was allowed to proceed for ten minutes and was then quenched with 5 μL EDTA; 45 mM final). The components of the detection reaction, ThioNAD and G6PDH (glucose-6-phosphate dehydrogenase) (final concentrations of 650 μM and 3.33 Units, respectively), were then added together in a volume of 25 μL, (to give a total volume of 50 μL). Absorbance measurements were made at 405 nm on a SPECTRAMAX® Plus 384 absorbance plate reader (Molecular Devices). Absorbance was read, background glucose-6-phosphate levels were subtracted, after which activation was calculated as a percentage of control activity. Control activity was determined using GK in the presence of vehicle (DMSO), with background glucose-6-phosphate subtracted. Background glucose-6-phosphate was determined by pre-quenching GK with EDTA prior to reaction initiation with ATP.
# Expression and Purification of Human GK
# Full-length human hepatic GK (untagged) was expressed in BL21 STAR (DE3)pLysS cells (Invitrogen) at 25° C. as described by Mookhtiar et al. (1). The protein was purified essentially as described by Lange (2) with a slight modification. Briefly, cell pellets were lysed via three rounds of freezing and thawing, centrifuged at 15000 g for clarification, and precipitated with 40-65% (NH4)2SO4. The resulting pellet was resuspended in buffer, dialyzed, and applied directly to a Q-SEPHAROSE® (Sigma) column followed by elution with a linear 100-600 mM KCl gradient. GK containing fractions were pooled, dialyzed overnight vs. 25 mM Hepes pH 7.2/1 mM MgCl2/1 mM EDTA/0.1 M KCl/1 mM DTT, then dialyzed again with same buffer with 10% glycerol added.
# [1] = system: male DIO (diet-induced obese) C57BL/6J mice; assay: Oral glucose tolerance test (OGTT) in DIO mice; assay type: in vivo; conditions: 30 μmol/kg given orally 60 min before 2 g/kg oral glucose; DIO C57BL/6J mice; ΔAUC 0-120 min
# Procedure: In Vivo Studies: Oral Glucose Tolerance Test (OGTT)
# Oral glucose tolerance tests were carried out on male DIO (diet-induced obese) C57BL/6J mice fed a high fat diet (60% kcal from fat) for 26 weeks prior to experimentation. Mice were fasted overnight before use for experiments. A test compound or vehicle (either: 1) 40% PEG 400+10% Cremophore+50% water or 2) 10% dimethyl acetamide+10% ethanol+10% Cremophore+70% water) was given orally 60 min before oral administration of a glucose solution at a dose of 2 g/kg body weight (oral glucose tolerance test; OGTT). Blood glucose levels were measured from tail-bled samples taken at different time points before and after administration of glucose (time course of 2 hours). A time curve of the blood glucose was generated and the change from baseline area-under-the curve (ΔAUC) from 0-120 min was calculated (the time glucose administration being time zero).
smiles,measurement,setting,value
CCOP(C)(=O)Cn1ccc(Nc2ncnc3ccc(OC(C)C)cc23)n1 (racemic) [Example 3],EC50,Human Glucokinase,810 nM
same,Emax,Human Glucokinase,134%
CCOP(C)(=O)Cc1csc(Nc2ncnc3ccc(OC(CF)CF)cc23)n1 (racemic) [Example 6],EC50,Human Glucokinase,390 nM
CCOP(=O)(Cc1csc(Nc2ncnc3ccc(OC(CF)CF)cc23)n1)OCC [Example 1],EC50,Human Glucokinase,91 nM
same,Emax,Human Glucokinase,145%
same,Reduction in Glucose AUC at 30 μmol/kg dose,[1],93%
CCOP(=O)(Cc1csc(Nc2ncnc3ccc(OC(C)C)cc23)n1)OCC [Example 2],EC50,Human Glucokinase,136 nM
CCOP(=O)(Cc1csc(Nc2ncnc3ccc(O[C@@H](C)COC)cc23)n1)OCC [Example 4],Emax,Human Glucokinase,180%
